No end group written: not given here.
Experiments:
[1] = human serum; conditions: 37°C, up to 2 h
[2] = molecular target: T1, recombinant extracellular domain of human CAIX (Homo sapiens, UniProt Q16790); experiment: Binding of 125I-labeled CaIX-P1 on immobilized recombinant extracellular domain of CAIX; conditions: co-incubation of ^125I-CaIX-P1 with unlabeled CaIX-P1 at 10^−4 M, p<0.05, n = 3; read-out: Binding inhibition of the radioligand
T1 construct: Fc (Fc gamma, from pSEC-EGP-2-Fcγ vector) (C); made in house; host or cells: Flp-In-293 human embryonic kidney cells (secreted into medium)
Description: Binding of ^125I-labeled CaIX-P1 was performed on immobilized recombinant extracellular domain of human CAIX and of EGFR. For immobilization the target proteins CAIX and EGFR were incubated at a concentration of 50 nM in 24-well plates for 24 h. Thereafter, the plates were washed three times with 500 µl PBS pH 7.4. Incubation with ^125I-CaIX-P1 was performed in 500 µl PBS pH 7.4 for 30 min. After incubation the plates were washed three times with 500 µl ice cold PBS pH 7.4. The target proteins were degraded with 500 µl NaOH 0.3 mol/L and the radioactivity was counted with a γ-counter. Bound radioactivity was calculated as percentage applied dose. In order to evaluate the specificity of the radioligand binding, competition experiments with the unlabeled CaIX-P1 peptide at a concentration of 10^−4 M were carried out.

[3] = system: CAIX positive SKRC 52 cells; assay type: cell-based, human; conditions: 24 h
Description: For binding experiments 3×10^5 CAIX positive SKRC 52 cells were seeded into 6-well plates and cultivated in 3 mL of incubation medium at 37°C for 24 h. After cell blocking with RPMI 1640 (without FCS) containing 1% BSA, the medium was replaced with 1 mL of fresh medium (without FCS) containing 0.5–1.5×10^6 cpm of ^125I-labeled peptide and incubation was performed for time periods varying from 10 min to 6 h at 37°C. To determine specific versus nonspecific binding, the cells were incubated with the unlabeled CaIX-P1 peptide at concentrations varying from 10^−4 to 10^−10 mol/L. Octreotide was used as negative control competitor. After incubation the medium was removed and the cells were washed three times with 1 mL ice cold PBS in order to remove the unbound radiolabeled peptide. Subsequently, the cells were lysed with 0.5 mL NaOH 0.3 mol/L and the radioactivity was measured with a γ-counter. Bound radioactivity was calculated as percentage applied dose per 10^6 cells. Binding experiments were also performed on HCT 116 cells and on human umbilical vein endothelial cells (HUVEC) at various cell densities. CAIX negative CaKi-2 cells were used as negative control.

[4] = Stability in human serum; assay type: in vitro ADME; conditions: 37°C
Description: The stability of CaIX-P1 was investigated in human serum. The peptide was incubated at 37°C in human serum at a concentration of 10^−4 mol/L. At time points varying from 5 min to 2 h aliquots were taken, mixed with equal volume acetonitrile to precipitate serum proteins and centrifuged for 5 min at 13,000 rpm. The supernatant was analyzed with HPLC on a Chromolith Performance RP-18e 100×4.6 mm column (Merck) using a linear gradient of water and acetonitrile containing 0.1% trifluoroacetic acid. Samples of CaIX-P1 and its fragments in human serum were isolated and analyzed by MALDI-TOF mass spectrometry.

YNTNHVPLSPKY
cleaved bond [1]: tyrosine1-N2, major, 10 min

YNTNHVPLSPKY [CaIX-P1]
inhibition at 100 µM [2]: 93% | IC50 [3]: 1750 ± 490 nM | Main product of serum degradation ([4]; 10^−4 mol/L, appeared after 10 min, HPLC isolation and MALDI-TOF mass spectrometry): lacking the N-terminal tyrosine | half-life ([4]; peptide 10^−4 mol/L, aliquots 5 min to 2 h, acetonitrile precipitation, HPLC): ~25 min
